Structures can show the parent of a compound that is named as a salt. Where two headings read alike, the source gives them in different places.
Test system: NRG1-ERBB4 signaling
Experiment: Nrg1-ERBB4-PIK3R1 split TEV co-culture compound screen of the NIH Clinical Collection
Format: cell-based, human
Source text: For our HTS‐compatible split TEV assay approach, human full‐length ERBB4‐Cyt1 was fused to the NTEV fragment, a TEV protease cleavage site (tevS) and the artificial co‐transcriptional activator Gal4‐VP16 (ERBB4‐NTEV‐tevS‐GV); human PIK3R1 was fused to the CTEV fragment (PIK3R1‐CTEV) (Fig 1A). Upon ERBB4 activation, PIK3R1 is recruited to the receptor resulting in a reconstituted protease activity that cleaves off GV. In turn, released GV translocates to the nucleus and binds to upstream activating sequences (UAS) to activate the transcription of a firefly luciferase reporter gene (Fig 1A). A constitutively expressed Renilla luciferase driven under the control of the human thymidine kinase (TK) promoter was used as control to address off‐target effects related to toxicity.
For small molecule screening, the NIH‐NCC Clinical Collection library (sets NCC‐003 and NCC‐201) was used containing 727 small molecules that are FDA‐approved and have a history in clinical applications (www.nihclinicalcollection.com). A Hamilton Labstar robot connected to 37 and 4°C incubators for cell incubation and compound storage and application (Cytomat automated incubator, ThermoScientific) and to a luciferase reader (Berthold Technologies) was used to automatically perform the screening. […] Each batch was screened three times.
For one 96‐well plate, 4 × 10^6 PC12 cells were harvested and diluted in 5 ml assay medium (phenol red‐free DMEM (low glucose, Life Technologies), 10% FCS, 5% HS, no antibiotics). The split TEV assay plasmids (2 μg pcDNA3_ERBB4‐NTEV‐tevS‐GV‐2xHA, 2 μg pTag4C_PIK3R1‐CTEV‐2xHA, 2 μg p5xUAS_firefly luciferase, 2 μg pTK_Renilla luciferase, and 0.5 μg pECFP‐C1 for examining transfection efficiency) were diluted in 2.5 ml Opti‐MEM (Life Technologies) and vortexed. In parallel, 20 μl of the transfection reagent Lipofectamine 2000 was diluted in 2.5 ml Opti‐MEM and vortexed.
For plating of one 96‐well plate, 10 ml suspension, containing the 4 × 10^6 in solution‐transfected cells, was placed in the bubble paddle reservoir of the Hamilton Cellstar robot. 100 μl was seeded per 96‐well using the 96‐tip pipetting head. The homogeneity of the cell suspension was guaranteed over time by mild stirring using the paddling device inside the reservoir. For five plates each, 50 ml of additional cell suspension was used to allow for losses of inaccessible volume.
The cells were allowed to express the plasmids for 24 h before compounds were added. Proper expression and transfection efficiency were verified by ECFP expression on a clear control plate. The compounds were applied in a final concentration of 10 μM using DMSO as diluent. […] Thirty minutes later, 10,000 Nrg1‐expressing PC12 cells in 100 μl assay medium were seeded on top. 24 h after addition of the compounds, the cells were lysed using 40 μl Passive Lysis buffer (Promega) and subjected to a Dual Luciferase Assay (Promega) according to the manufacturer's instructions. The data were analyzed in R Bioconductor using the package cellHTS2 (http://www.bioconductor.org/packages/devel/bioc/html/cellHTS2.html), assessed using the z‐score, and visualized using the program Mondrian (http://stats.math.uni-augsburg.de/mondrian/).

[1] = compounds at 10 μM, 24 h, PC12 split TEV assay cells co-cultured with Nrg1-expressing PC12 cells, analysed with cellHTS2
[2] = compound screen of the NIH Clinical Collection, sheet raw data NCC-003, compounds ranked by Z-score
[3] = NIH Clinical Collection NCC-003 raw data, compounds ranked by Z-score, 'flagged' given instead of a Z-score

SMILES	Z-SCORE [1]	Z-SCORE [2]	also measured
C#C[C@]1(O)CC[C@H]2[C@@H]3CCC4=CC(=O)CC[C@@H]4[C@H]3CC[C@@]21C [19-Norethindrone, reference compound]	0.63		
Cc1occc(=O)c1O [118-71-8]		0.13	
CC=CC(=O)N(CC)c1ccccc1C [483-63-6]		-0.8	
CN1C(=O)CC[C@H]1c1cccnc1 [(-)-Cotinine]		-0.57	
C[C@H]1O[C@H](O[C@H]2[C@H](O)[C@@H](O)[C@@H](O[C@H]3[C@H](O)[C@@H](O)C(O)O[C@@H]3CO)O[C@@H]2CO)[C@H](O)[C@@H](O)[C@@H]1N[C@H]1C=C(CO)[C@@H](O)[C@H](O)[C@H]1O (stereo partly shown) [ACARBOSE]		-0.8	
CCCC(=O)Nc1ccc(OCC(O)CNC(C)C)c(C(C)=O)c1 (stereo not shown) [ACEBUTOLOL HYDROCHLORIDE, reference compound]	0.4		
CC(=O)Nc1ccc(CC(=O)O)cc1 [ACTARIT]		-0.12	
COc1cc2nc(N(C)CCCNC(=O)C3CCCO3)nc(N)c2cc1OC (stereo not shown) [ALFUZOSIN]		0.03	
Cc1[nH]cnc1CN1CCc2c(c3ccccc3n2C)C1=O [ALOSETRON HCl]		0.99	
CCCCC/C=C\C/C=C\C/C=C\C/C=C\CCCC(=O)Nc1ccc(O)cc1 [AM 404]		-1.01	
Cc1c(C(=O)NN2CCCCC2)nn(-c2ccc(Cl)cc2Cl)c1-c1ccc(I)cc1 [AM-251]		-0.56	
CC(=O)OCC(=O)[C@@]12OC3(CCCC3)O[C@@H]1C[C@H]1[C@@H]3CCC4=CC(=O)C=C[C@]4(C)[C@@]3(F)[C@@H](O)C[C@@]12C [AMCINONIDE, reference compound]	-1.01		
CC(NC(C)(C)C)C(=O)c1cccc(Cl)c1.Cl (stereo not shown) [AMFEBUTAMONE HCl]		0	
CCCCc1oc2ccccc2c1C(=O)c1cc(I)c(OCCN(CC)CC)c(I)c1 [AMIODARONE HYDROCHLORIDE]		-0.19	
Clc1ccc2c(c1)C(N1CCNCC1)=Nc1ccccc1O2 [AMOXAPINE, reference compound]	0.4		
CC1(C)S[C@@H]2[C@H](NC(=O)[C@H](N)c3ccc(O)cc3)C(=O)N2[C@H]1C(=O)O [AMOXICILLIN CRYSTALLINE, reference compound]	-1.06		
CCOC(=O)OC(C)OC1=C(C(=O)Nc2ccccn2)N(C)S(=O)(=O)c2ccccc21 (stereo not shown) [AMPIROXICAM]		0.43	
O=C1CN2Cc3c(ccc(Cl)c3Cl)N=C2N1 [ANAGRELIDE HCl]		-0.48	
CC(C)(C#N)c1cc(Cn2cncn2)cc(C(C)(C)C#N)c1 [ANASTROZOLE]		-0.16	

SMILES	Z-SCORE [1]	Z-SCORE [2]	also measured
CC1CNc2c(cccc2S(=O)(=O)N[C@@H](CCCNC(=N)N)C(=O)N2CC[C@@H](C)C[C@@H]2C(=O)O)C1 (stereo partly shown) [ARGATROBAN]		-0.29	
O=C1CCc2ccc(OCCCCN3CCN(c4cccc(Cl)c4Cl)CC3)cc2N1 [ARIPIPRAZOLE]			Z-SCORE [3]: -1.84
C[C@H]1[C@H](OC(=O)CCC(=O)O)O[C@@H]2O[C@@]3(C)CC[C@H]4[C@H](C)CC[C@@H]1[C@@]24OO3 [ARTESUNATE]			Z-SCORE [3]: flagged
CC(C)NCC(O)COc1ccc(CC(N)=O)cc1 (stereo not shown) [ATENOLOL, reference compound]	0.6		
CNCC[C@@H](Oc1ccccc1C)c1ccccc1 [ATOMOXETINE HCl]		0.83	
COc1ccc(CC2c3cc(OC)c(OC)cc3CC[N+]2(C)CCC(=O)OCCCCCOC(=O)CC[N+]2(C)CCc3cc(OC)c(OC)cc3C2Cc2ccc(OC)c(OC)c2)cc1OC (stereo not shown) [ATRACURIUM BESYLATE]		-0.66	
CN1CCCC(n2nc(Cc3ccc(Cl)cc3)c3ccccc3c2=O)CC1 (stereo not shown) [AZELASTINE HCl]		-0.68	
CC(=O)Nc1nnc(S(N)(=O)=O)s1 [Acetazolamide, reference compound]	0.2		
COc1cc(C)c(/C=C/C(C)=C/C=C/C(C)=C/C(=O)O)c(C)c1C [Acitretin, reference compound]	-0.6		
Nc1nc2c(ncn2COCCO)c(=O)[nH]1 [Acyclovir, reference compound]	0.99		
Nc1ncnc2c1ncn2[C@@H]1O[C@H](CO)[C@@H](O)[C@@H]1O [Adenine 9-beta, reference compound]	1.63		
c1ccc2c(CC3=NCCN3)cccc2c1 [Albalon, reference compound]	-0.27		
CCCSc1ccc2nc(NC(=O)OC)[nH]c2c1 [Albendazole, reference compound]			Z-SCORE: -5.48
CC(C)(C(=O)O)c1ccc(C(O)CCCN2CCC(C(O)(c3ccccc3)c3ccccc3)CC2)cc1 (stereo not shown) [Allegra, reference compound]	-0.84		
Oc1ncnc2[nH]ncc12 [Allopurinol, reference compound]	0.21		
Cc1nnc2n1-c1ccc(Cl)cc1C(c1ccccc1)=NC2 [Alprazolam]			Z-SCORE [3]: -2.27
O=C(c1ccc(F)cc1)C1CCN(CCn2c(=S)[nH]c3ccccc3c2=O)CC1 [Altanserin]		0.71	
CN(C)c1nc(N(C)C)nc(N(C)C)n1 [Altretamine, reference compound]	-0.4		
CCC1(c2ccc(N)cc2)CCC(=O)NC1=O (stereo not shown) [Aminoglutethimide, reference compound]	-0.62		

SMILES	Z-SCORE [1]	Z-SCORE [2]	also measured
NCC(=O)CCC(=O)O [Aminolevulinic Acid, reference compound]	-0.04		
CCN1CCCC1CNC(=O)c1cc(S(=O)(=O)CC)c(N)cc1OC (stereo not shown) [Amisulpride]		0.41	
CC(C)c1ccc2oc3nc(N)c(C(=O)O)cc3c(=O)c2c1 [Amlexanox, reference compound]	4.7	4.7	
CC1(C)S[C@@H]2[C@H](NC(=O)[C@H](N)c3ccccc3)C(=O)N2[C@H]1C(=O)O [Ampicillin Sodium, reference compound]	-1.31		
CN(C)CCCN1c2ccccc2CCc2ccc(Cl)cc21 [Anafranil, reference compound]	0.12		
CN(C)CCC=C1c2ccccc2CCc2ccccc21.Cl [Annoyltin, reference compound]	0.33		
OC(CCN1CCCCC1)(c1ccccc1)C1CCCCC1 (stereo not shown) [Artane, reference compound]	-0.35		
CN1C(=O)COc2c(C(=O)NC3CN4CCC3CC4)cc(Cl)cc21 (stereo not shown) [Azasetron]		0.46	
Cn1cnc([N+](=O)[O-])c1Sc1ncnc2nc[nH]c12 [Azathioprine, reference compound]	0.16		
CC[C@H]1OC(=O)[C@H](C)[C@@H](O[C@H]2C[C@@](C)(OC)[C@@H](O)[C@H](C)O2)[C@H](C)[C@@H](O[C@@H]2O[C@H](C)C[C@H](N(C)C)[C@H]2O)[C@](C)(O)C[C@@H](C)CN(C)[C@H](C)[C@@H](O)[C@]1(C)O [Azithromycin, reference compound]	0.06		
O=C(O)CCNC(=O)c1ccc(/N=N/c2ccc(O)c(C(=O)O)c2)cc1 [BALSALAZIDE]		0.84	
CCC(=O)OCC(=O)[C@@]1(OC(=O)CC)[C@@H](C)C[C@H]2[C@@H]3CCC4=CC(=O)C=C[C@]4(C)[C@@]3(Cl)[C@@H](O)C[C@@]21C [BECLOMETHASONE DIPROPIONATE, reference compound]	0.81		
CCN(CC)CCOC(=O)C(O)(c1ccccc1)c1ccccc1 [BENACTYZINE HYDROCHLORIDE]		2.48	
CCOC(=O)[C@H](CCc1ccccc1)N[C@H]1CCc2ccccc2N(CC(=O)O)C1=O [BENAZEPRIL HCl]		0.26	
CC(COc1ccccc1Cc1ccccc1)N1CCCCC1.O=P(O)(O)O (stereo not shown) [BENPROPERINE PHOSPHATE]		-0.08	
CC(C)C[C@H](NC(=O)[C@@H](O)[C@H](N)Cc1ccccc1)C(=O)O [BESTATIN]			Z-SCORE [3]: -1.11
C[C@]12CC[C@@H]3c4ccc(O)cc4CC[C@H]3[C@@H]1CC[C@@H]2O [BETA-ESTRADIOL]		0.81	
CC(O)(CS(=O)(=O)c1ccc(F)cc1)C(=O)Nc1ccc(C#N)c(C(F)(F)F)c1 (stereo not shown) [BICALUTAMIDE]		0	
CC(C)NCC(O)COc1ccc(COCCOC(C)C)cc1 (stereo not shown) [BISOPROLOL FUMARATE]		0.59	

Source: paper PMC5653977 (EMBO Molecular Medicine, 2017)
